Among the data in a melting point compilation (Tetko et al.; mined from patent text by program, amines drawn as free bases though some values may be those of a salt) are melting point values, retold here.

As a reminder, the melting point is the temperature, or range, at which the solid turns liquid.

`O=c1c2ccccc2[nH]n1CC#Cc1ccccc1` had a melting point of 151 to 154 °C. The same measure for `CCS(=O)(=O)Nc1ccc(C(=O)CN2CCN(c3ccncc3)CC2)cc1`: 204 to 208 °C; for `Nc1cc(-c2ccccn2)c[nH]c1=O`: 259 to 262 °C; for `COc1cc2c(c3c1OC(C)(C)C3)C(c1cccc(-c3ccc(N)cc3)c1)=NCC2(C)C`: 232 to 234 °C.

As for `COc1ccc(-c2nc3n(c2-c2ccc(OC)cc2)CCC3)cc1`, the melting point lay in the range of 146 to 148 °C. On to `CC(=O)OCc1ccc(C(=O)O)cc1`, for which the melting point was in the range of 120 to 123 °C. `CCC(O)(C#Cc1ncn2c1CN(C)C(=O)c1cc(F)ccc1-2)CC` yielded a melting point of 135 to 136 °C. `Cc1c(NC(=O)c2ccc(OCC3CC3)cc2)ccc2cc(CN3CCC(C)(O)CC3)n(C)c12` gave a melting point of 152 to 155 °C. Compound `Cc1[nH]cc2c(=O)n(-c3ccc(Cl)cc3)nc-2c1-c1cccc(C(=O)N2CCN(C)CC2)c1` showed a melting point of 318 to 322 °C.

In turn, `O=C(CCC(=O)N1CCC(c2ccc(Cl)cc2)CC1)c1ccc2c(c1)CNC2` yielded a melting point of 133 to 134 °C. `Cc1nn(CC(=O)COCc2ccccc2)c(-c2ccc(F)cc2)c1-c1ccc2c(c1)NC(=O)CO2` had a melting point of 154 to 155 °C.

`CCC(C)(C)c1cc(C(C)c2cc(C(C)(C)CC)cc(C(C)(C)CC)c2O)c(O)c(C(C)(C)CC)c1` came in with a melting point of 116 to 118 °C. Compound `CCCCOc1ccc(S(=O)(=O)C2(C(=O)O)CCN(CCCC)CC2)cc1` showed a melting point of 182 °C. For the compound `CN1C(=O)CC[C@]2(C)c3ccc(-c4ccc(F)c(F)c4)cc3CC[C@@H]12`, the melting point lay in the range of 143 to 148 °C. Take `COC(=O)C1CCc2cc(F)cc(C(F)(F)F)c2O1` (stereo not given): the melting point was 71.8 °C. Regarding `CCOP(=O)(CCc1cccc(-c2nc(=O)c3ccccc3s2)n1)OCC`, the melting point is 149 to 150 °C. With `CCCSC1=Nc2cc(C(=O)O)ccc2SN1Cc1ccc(-c2ccccc2C#N)cc1`, the melting point was in the range of 53 to 68 °C.

`CCCCCCCCCCCCCCc1onc(C(=O)NN)c1O` had a melting point of 130 °C. For `Cc1c[nH]c(=O)c2c3c([nH]c12)CCC(=O)C3`, the melting point was > 260 °C. As for `CCOc1cc2cc(CO)cc(-c3ccnc(NN)c3)c2cc1OCC`, the melting point was in the range of 147 to 149 °C. For `O=C(CC(F)(F)F)NNc1nccc(-c2ccc(OC3CCOCC3)c(Cl)c2)c1Cl`, the melting point was 191 °C. On to `CCOC(=O)C1=C(C)N(Cc2ccccc2[N+](=O)[O-])C2=C(C(=O)OC2)C1c1ccccc1C(F)(F)F` (stereo not given), for which the melting point came to 233 °C. `NOc1ccc2c(c1)CCCC2=O` yielded a melting point of 55.5 to 57 °C. In turn, `CCOC(=O)c1cccc2ncc(CN(C)C)n12` displayed a melting point of 117 to 118 °C. The same measure for `CCN1C(=O)C(C)(C)C(=O)N(C)c2cc(CN(CCn3ccc4oc(COC)cc4c3=O)Cc3cccnc3C)ccc21`: 123 to 126 °C; for `Cc1c(C(=O)N2C[C@@H](C)N[C@@H](C)C2)c2ccccc2n2cnc(C(=O)OC(C)(C)C)c12`: 228 to 232 °C; for `COc1ccc(-c2nn(C(C)c3oc4ccccc4c(=O)c3-c3cccc(F)c3)c3ncnc(N)c23)cc1F` (stereo not given): 222 to 224 °C. `Cc1c(O)cccc1C(=O)N[C@@H](Cc1ccccc1)[C@H](O)C(=O)N1CSC(C)(C)[C@H]1C(=O)NCc1ccc(N)cc1` showed a melting point of 107 to 109 °C. Compound `CCOC(=O)c1cn(-c2ccc(F)cn2)c2nc(Cl)c(F)cc2c1=O` came in with a melting point of 230 °C. Take `Cc1conc1-c1nnc2c3ccccc3c(OCc3ccccn3)nn12`: the melting point was found to be 164 °C.

For the compound `CC(C)(C)c1cc(-c2nn(C(=O)c3cccs3)c3ncccc23)cc(C(C)(C)C)c1O`, the melting point was 240 to 242 °C. Regarding `COc1cc2c(cc1Nc1ncc(Cl)c(N[C@@H]3CCCC[C@H]3NS(C)(=O)=O)n1)CCN(CC(=O)N1CCCC1)CC2`, the melting point was 120 to 135 °C.

With `Clc1ccc(C2=CCc3cc(Br)cnc3O2)cc1Cl`, the melting point was 138 to 140 °C. In turn, `O=C(CC(=O)C1CC1)c1cnccn1` showed a melting point of 111 to 112 °C. `CC(=O)OCCCc1cc2c(s1)-n1c(C)nnc1CN=C2c1ccccc1Cl` registered a melting point of 153 to 155 °C. On to `Cc1cc2c(c(C)c1NC(=O)CC(C)(C)C)C(=O)C(C)(C)O2`, for which the melting point lay in the range of 181 to 182 °C. The same measure for `O=C(O)c1ccc(-c2ccc3cc(CCO)c(C45CC6CC(CC(C6)C4)C5)cc3c2)cc1`: 276 to 278 °C; for `O=C(CO)c1cccc(Br)c1`: 100 to 101 °C; for `CCOC(=O)CC1(N2C(=O)c3ccccc3C2=O)C(=O)N(c2ccccc2)c2ccccc21` (stereo not given): 148 to 149 °C. The compound `Cn1ncnc1COc1nc2c(cnn2-c2ccccc2)cc1C(C)(C)C` yielded a melting point of 143 to 145 °C. The same measure for `O=C(Nc1ccc(N2CCNCC2)c(C(F)(F)F)c1)c1ccc(F)c(OCc2cncc3ccccc23)c1`: 103 to 107 °C; for `S=c1nc2c(-c3ccccc3)cccn2c(=S)n1-c1ncccc1-c1ccccc1`: 90 to 92 °C. As to `Cc1ccc(-c2ccc3c(c2)C=C(C(=O)N2CCC(NC(=O)C(F)(F)F)CC2)CCO3)cc1`, the melting point lay in the range of 189 to 192 °C. Turning to `CCOC(=O)c1c(CC)[nH]c(CC)c1C`, the melting point lay within 101 to 103 °C.

With `COc1cc2c(cc1OC)-c1cc(=O)n(C)c(=O)n1CC2`, the melting point lay in the range of 260 to 262 °C.

`O=C(NOCCO)c1cc(Br)c(F)c(F)c1Nc1ccc(I)cc1F` gave a melting point of 189 to 190 °C.

In turn, `CC(=O)NC[C@H]1CN(c2ccc(C(=O)c3cnc4ccccn34)c(F)c2)C(=O)O1` displayed a melting point of 196 to 198 °C.

`CC[C@@]1(c2cc(F)cc(OCc3ccc4c(ccc(=O)n4C)c3)c2)CCO[C@H](C)C1` (racemic): the melting point is 99 °C. Compound `CCC(Cc1c(I)cc(I)c(NC(=O)CCl)c1I)C(=O)O` (stereo not given) returned a melting point of 157 °C. Turning to `CN(CCO[N+](=O)[O-])C(=O)COC(=O)c1cc(S(N)(=O)=O)c(Cl)cc1NCc1ccco1`, the melting point was in the range of 70 to 72 °C. On to `COC(Cc1cc(C)c(OCCc2nc(C(C)(C)C)oc2C)c(C)c1)C(=O)O` (stereo not given), for which the melting point is 78 to 80 °C. Turning to `COC(=O)[C@@H](NC(=O)[C@H](CC(C)C)NC(=O)[C@@H](NC(=O)OCc1ccccc1)C(C)C)[C@@H](C)O`, the melting point fell in the range of 217 to 218 °C. The compound `FC(F)(F)c1cc(Cl)c(-c2nc(C(F)(F)F)c[nH]2)c(Cl)c1` had a melting point of 213 to 215 °C. In the case of `CCCn1cc(C(=O)O)c2ccc(Cl)cc21` it was 179 to 180 °C. Regarding `O=C(NC[C@H]1CN(c2ccc3c(c2)CCCc2cnoc2-3)C(=O)O1)c1ccccc1`, the melting point fell in the range of 240 to 245 °C.

In turn, `COC(=O)C(C)(C)OCC#Cc1cc(Cl)ccc1NS(=O)(=O)c1ccc2nc(NC(C)=O)sc2c1` yielded a melting point of 80 °C. Compound `CCC(C)NC(=O)C1=C(C(=O)Nc2cc(OC3CCCC3)c(Cl)cc2F)CCCC1` (stereo not given) returned a melting point of 174 to 175 °C. For `O=Cc1ccc2[nH]c(C(=O)OCc3ccccc3)cc2c1`, the melting point stood at 172 °C.

With `Oc1cccc2c1sc1ccccc12`, the melting point fell in the range of 167 to 168 °C.

For the compound `O=S(=O)(N[C@H](CO)C1CCCCC1)c1ccc(Cl)cc1`, the melting point was in the range of 115 to 118 °C. For `CCCC(N)CCCCCCC(=O)O` (stereo not given), the melting point was in the range of 107 to 108 °C. Compound `CN(C(=O)OC(C)(C)C)c1cc(Oc2cccc(-c3ccccc3)c2)ccc1N` had a melting point of 114 to 115 °C.

`COc1ccc(N(C(=O)CN2C(=O)C(Cc3nn(Cc4ccccc4)c4ccccc34)(OC)C(=O)Nc3ccccc32)C(C)C)cc1` (stereo not given) gave a melting point of 202 to 204 °C. As to `CCCCCCCCCCCCCCCCOCC(CO)Oc1ccon1` (stereo not given), the melting point was in the range of 50 to 51 °C. In the case of `CCOCc1cc2cc(Br)ccc2oc1=Nc1ccc(OC)cc1` it was 134 to 135 °C.

`CC12CC(=O)C3C(CCC4CC(O)CCC43C)C1CCC2C(=O)CSc1ccccn1` (stereo not given) gave a melting point of 184 °C. Consider `Clc1ccc(C(c2ccc(Cl)cc2)N2CCN(C(c3ccccc3)c3c[nH]c4cccc(Cl)c34)CC2)cc1` (stereo not given), for which the melting point is 100 to 105 °C.

`CCOC(=O)c1cccc(-c2nc(-c3ccc(C)c(C)c3)cs2)c1` showed a melting point of 114 to 115 °C. For `COc1cccc(OC)c1CNC(=O)c1ccc2c(c1)C(=NNc1ccc(S(N)(=O)=O)cc1)C(=O)N2`, the melting point was > 250 °C. In the case of `COC(=O)c1cccc(OCc2nc(-c3ccccc3)oc2C)n1` it was 97 to 98 °C; in that of `COC(=O)CCc1cnoc1-c1ccc(OC)c(OC)c1`, 68 to 69 °C; in that of `O=C(NCCCC(CCCNC(=O)c1ccccc1)OC(F)(F)F)c1ccccc1`, 115 to 118 °C. As for `CNC(=O)c1cccc(NC(=O)Cc2ccccc2Cl)c1`, the melting point was 211 to 212 °C. In turn, `CCn1cc(C(=O)NCc2ccc(Cl)cc2)c(=O)c2cc(Br)sc21` displayed a melting point of 196 to 197 °C. `CCOC(=O)c1cnc2sc(CN3CCOCC3)c(C)c2c1O` yielded a melting point of 182 to 185 °C. In turn, `COc1cc(NCc2ccccc2C)ccc1C(=O)N1CCCC(CC(=O)N2CCN(C)CC2)c2cc(Cl)ccc21` (stereo not given) returned a melting point of 153 to 154 °C.

The compound `COc1ccccc1[C@H](c1cccc2ccccc12)[C@@](C)(C#N)C(=O)N1CCN(c2cccc(Br)c2)CC1` came in with a melting point of 180 to 182 °C. Turning to `Nc1ccc(N2CC(O)C2)nc1`, the melting point lay within 148 to 150 °C. Consider `O=[N+]([O-])c1ccc(S(=O)(=O)c2cc(Br)nc(Br)c2)cc1`, for which the melting point is 204 to 206 °C. Consider `Nc1cccc(-c2ccc(CCN3CCN(C(=O)Oc4ccccc4)CC3)cc2)n1`, for which the melting point fell in the range of 102 to 104 °C. In turn, `COc1cc2c(cc1OC)CN(CCCOc1ccc(NC(=O)c3cccc4c(=O)c5cccc(OC)c5[nH]c34)c(C)c1)CC2` came in with a melting point of 160 °C. As for `CCN(c1ccncc1)c1ccccc1C(=O)N1CCCCC1`, the melting point is 123 to 124 °C. For `Cc1c(C)c(O)c(CN(C)C)c(C)c1O`, the melting point was 103 to 108 °C. As to `COc1c(Sc2ccccc2)c2cccnc2n1-c1ccccc1`, the melting point lay in the range of 86 to 87.5 °C. In turn, `CCCCCCCOc1ccc(C2CCC(=O)O2)cc1` (single isomer, unassigned) had a melting point of 44 °C.
